Several values for one entry are separate records, joined by “and”; a condition that tells them apart may be missing. Equal values may be shown once. Activity calls are given as the source filed them.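 How the source made its calls: active means compounds whose IC50 is 20 micromolar or lower, counted as confirmed SKN-1 reporter blockers; inactive means the rest.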
What follows are molecules tested on C. elegans VP596 Pgst-4::GFP/RFP ratio, acrylamide, 24 h (assay: inhibition of acrylamide-induced Pgst-4::GFP reporter, dose response, SKN-1 inhibitor project, whole organism, GFP/RFP fluorescence ratio, set 2, strain VP596 (AID 651563);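 further: red signal is driven by the dop-3 promoter and serves as the normalizer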).

SMILES | IC50
CC1(C)c2ccccc2C(=O)c2ccccc21 | > 100 µM (inactive)
Clc1ccccc1-c1nc(-c2ccncc2)no1 | 18.4 µM and > 100 µM (inactive)
Clc1ccc(Cn2nnc(-c3ccccc3)n2)cc1 | 20.9 µM (inactive)
c1ccc(-c2cnc(-c3ccccc3)nn2)cc1 | > 100 µM (inactive)
Clc1ncc(CSc2ccccc2)s1 | > 100 µM (inactive)
CC(C)(C)N=C1NN=C(c2ccc(Cl)cc2)CS1 | 25.9 µM (inactive)
FCCCOc1ccc(-c2nccc(-c3ccccn3)n2)cc1 | 25.6 µM (inactive)
CCN(CC)c1ccc(/C=C2\C(=O)c3ccc(C(=O)O)cc3C2=O)cc1 | 12.2 µM
C=CCSc1ncc(-c2ccccc2)cn1 | 27.2 µM (inactive)
Brc1ccc(CSc2nnc(-c3ccco3)o2)cc1 | 7.32 µM
C(=C\c1ccc2ccccc2n1)/c1ccccc1 | > 100 µM (inactive)
Cc1ccccc1-c1noc(-c2cccs2)n1 | 9.31 µM
CCOC(=O)c1c(-c2ccc(-c3ccccc3)cc2)csc1NC(=O)CNCCN(C)C | 10.9 µM
Clc1ccc(CSc2ncn(-c3ccccc3)n2)cc1 | 11.2 µM
O=C(CC(O)(C(F)(F)F)C(F)(F)F)Nc1ccc(Cl)c(Cl)c1 | 27.9 µM (inactive)
Cc1ccc(-c2noc(-c3cccs3)n2)cc1 | 12.4 µM
O=[N+]([O-])c1ccc(COc2ccc(CN3CCCC3)cc2)cc1 | 8.62 µM
O=C(Nc1ccc(OC(F)F)c(Cl)c1)c1ccccn1 | 5.09 µM
O=C(/C=C/c1ccc(Cl)cc1Cl)Nc1ccc(CN2CCOCC2)cc1 | > 100 µM (inactive)
CCOC(=O)Nc1nc(-c2ccc(F)cc2F)cs1 | 18.1 µM
Cc1cc(-c2nc3cc(F)ccc3s2)ccc1N | 18.3 µM
Clc1ccccc1-c1nnc(-c2ccccc2Cl)o1 | 1.79 µM
c1csc(-c2nc(-c3ccncc3)no2)c1 | 36.1 µM (inactive)
O=C(Nc1ccc(Cl)c(C(F)(F)F)c1)c1ccco1 | 64.4 µM (inactive)
Fc1ccc(Cn2nnc(-c3ccc(CN4CCOCC4)cc3)n2)cc1 | 19.9 µM

SMILES | IC50
O=C(Nc1ccc(CN2CCOCC2)cc1)c1cc2ccccc2o1 | 17.5 µM
CC(C)c1ccc(C(=O)Nc2ccc(CN3CCOCC3)cc2)cc1 | 4.79 µM
Fc1ccc(CSc2ncnc3ccccc23)cc1 | 24.2 µM (inactive)
COc1cc(CNC(C)c2ccccc2)cc(Br)c1OCc1ccc(F)cc1 (configuration not stated) | 9.1 µM
c1ccc(-c2csc(Nc3ccccn3)n2)cc1 | 16.8 µM
Brc1ccc2nc(N3CCCC3)sc2c1 | 25.8 µM (inactive)
O=C(Nc1nc(-c2ccc(Cl)s2)cs1)c1ccccc1 | 13.2 µM
CCOc1ccc(-c2nc(-c3cccnc3)no2)cc1 | 19 µM
Clc1ccc(-c2nnc(SCc3ccon3)o2)c(Cl)c1 | > 100 µM (inactive)
COc1cc(CNC2CCCC2)cc(Cl)c1OCc1ccc(F)cc1 | 11.8 µM
Fc1ccccc1-c1nc(-c2ccncc2)no1 | 38.6 µM (inactive)
CCOc1cc(CNC2CCCC2)cc(Cl)c1OCc1ccccc1 | 22.4 µM (inactive)
c1ccc2oc(SCc3nc4ccccc4s3)nc2c1 | 27.4 µM (inactive)
COc1c(C(=O)Nc2nccs2)ccc2ccccc12 | 41.8 µM (inactive)
CC(C)c1ccc(-c2nc3ccccc3s2)cc1 | > 100 µM (inactive)
O=C(/C=C/c1ccco1)Nc1nc(-c2ccccc2)cs1 | 42.6 µM (inactive)
Fc1ccc(-n2nnc(-c3cccnc3Cl)n2)cc1 | 8.82 µM
CCCCOC(=O)Nc1ccc(N2CCCCC2)cc1 | 38.8 µM (inactive)
O=C(/C=C/c1ccccc1)Nc1ccc(CN2CCOCC2)cc1 | 19.3 µM
Brc1ccc(CSc2nnc(-c3cccnc3)o2)cc1 | 29.1 µM (inactive)
O=C(Oc1ccccc1)N1CCN(c2ccc(F)cc2)CC1 | > 100 µM (inactive)
O=C(c1ccc(Cl)cc1)c1cc([N+](=O)[O-])ccc1N1CCOCC1 | > 100 µM (inactive)
O=C(/C(C=Nc1ccc(Br)cc1)=C(/O)c1ccco1)C(F)(F)F | 21 µM (inactive)
CCCCCCCCNc1ncnc2ccccc12 | > 100 µM (inactive)
Clc1ccc(-c2cc(CSc3ccccc3)on2)cc1 | > 100 µM (inactive)

SMILES | IC50
Cc1ccc(Nc2nc(-c3cccs3)cs2)nc1 | 30.2 µM (inactive)
Brc1ccc(-c2nnc(-c3cccnc3)o2)cc1 | > 100 µM (inactive)
O=C(NC(=S)Nc1ccc(CN2CCCCC2)cc1)c1cc2ccccc2o1 | 94.9 µM (inactive)
Clc1ccc(C=Cc2ccccn2)cc1 | 10.4 µM
CCCCOC(=O)Nc1ccc(C(C)C)cc1 | 76.2 µM (inactive)
Cc1cc(OCc2cccc(Cl)c2)c(C)cc1CN1CCOCC1 | 15.2 µM
COC(=O)c1c(-c2ccccc2)noc1-c1ccccc1 | 49.3 µM (inactive)
Clc1ccc(OCCCc2nc(-c3ccncc3)no2)c(Cl)c1 | 29.5 µM (inactive)
Brc1ccc(-c2nc(-c3ccccc3)no2)o1 | 2.54 µM
O=C(/C=C/Nc1ccc(F)c(Cl)c1)c1ccco1 | 16.7 µM
O=C(Sc1ccc(Cl)cc1)c1ccccn1 | > 100 µM (inactive)
Brc1ccc(-c2nnc(-c3ccco3)o2)cc1 | 10.8 µM
Cc1c(N2C(=O)/C(=C\c3ccc(N(C)C)cc3)N(C)C2=S)c(=O)n(-c2ccccc2)n1C | 16.9 µM
c1ccc(SCc2cc(-c3ccccc3)no2)cc1 | 12.8 µM
Brc1ccc2oc(-c3ccn[nH]3)cc2c1 | 10.3 µM
c1ccc(-n2nnc(-c3nccs3)n2)cc1 | > 100 µM (inactive)
COc1cc(CNC(C)(C)CO)cc(Br)c1OCc1ccc(Cl)cc1 | 19.7 µM
c1ccc(-c2ccc(-n3ccnc3)cc2)cc1 | 10.6 µM
O=C1NC2C(=CC(O)C(O)C2O)c2cc3c(cc21)OCO3 (configuration not stated) | > 100 µM (inactive)
CN(C)CC(O)c1ccc(C=Cc2ccc(Cl)cc2)cc1 (configuration not stated) | 18.4 µM
Clc1ccc(Cn2cc(Br)cn2)cc1Cl | 30.6 µM (inactive)
O=C(/C=C/c1cccs1)c1ccc(Br)cc1 | 20.8 µM (inactive)
Clc1ccc(-c2nc3cc(CN4CCCCC4)ccc3o2)cc1 | 87.7 µM (inactive)
Fc1ccc(-c2csc(Nc3ccccn3)n2)cc1 | 7.01 µM
O=[N+]([O-])c1cccc(-c2c(-c3ccccc3)ncc3cc(F)ccc23)c1 | > 100 µM (inactive)

SMILES | IC50
Fc1ccc(-n2nnc(-c3cccnc3)n2)cc1 | 24.8 µM (inactive)
Cc1nc2ccccc2cc1OCc1ccc(Cl)cc1 | > 100 µM (inactive)
O=C(/C=C/Nc1ccccc1F)c1cccs1 | 27.9 µM (inactive)
Clc1ccc(-c2nc(-c3ccncc3)no2)c(Cl)c1 | > 100 µM (inactive)
Nc1ccc2c(Cl)cc(Cl)cc2c1 | 28.5 µM (inactive)
COc1ccc(C(=O)Nc2nc(-c3cccs3)cs2)cc1 | 24.6 µM (inactive)
CCOc1cc(CNC2CCCC2)cc(Cl)c1OCc1ccc(F)cc1 | 2.85 µM
c1ccc(-c2nc3cc4ccccc4cc3[nH]2)nc1 | 16.1 µM
O=C(/C=C/Nc1ccc(Br)cc1F)c1ccco1 | 2.19 µM
O=C1/C(=C/c2ccccc2)CCCc2ccccc21 | 31.6 µM (inactive)
O=C(/C=C/c1ccccc1)/C=C/c1ccccc1 | 16.2 µM
O=[N+]([O-])c1ccc(OCc2cnc(Cl)s2)cc1 | 13.7 µM
CCCCOc1ccc(C(=O)OC2CC(C)N(C)CC2C)cc1 (configuration not stated) | 29.2 µM (inactive)
O=C(Nc1ccc(SC(F)F)cc1)c1ccccc1F | 20.3 µM (inactive)
O=C(C=Cc1ccccc1)CC(c1ccccc1)N1CCOCC1 (configuration not stated) | 10.2 µM
Clc1ccc(C#Cc2cccnc2)cc1 | 19.5 µM
Cc1ccc2nc(-c3ccc(NC(=S)NC4CC(C)(C)NC(C)(C)C4)cc3)sc2c1 | 15.9 µM
Brc1ccc(-c2cn3ccccc3n2)s1 | 18.1 µM
Clc1ccc2nc(-c3ccc(Br)s3)cn2c1 | 21.6 µM (inactive)
O=[N+]([O-])c1ccc2nc(N3CCCC3)sc2c1 | > 100 µM (inactive)
O=[N+]([O-])c1ccc(NCc2ccc(Cl)cc2)nc1 | 18.1 µM
Clc1ccc(-c2nnc(-c3ccccc3)o2)cn1 | > 100 µM (inactive)
O=C(/C=C/Nc1ccc(F)c(F)c1)c1cccs1 | 11.4 µM
O=C(C=Cc1ccco1)c1ccc2ccccc2c1 | 31.7 µM (inactive)
O=C(NCc1ccncc1)c1ccc(-c2ccc(F)c(F)c2)c2ccoc12 | 29.8 µM (inactive)

SMILES | IC50
CC1=NOC(=O)/C1=C/c1ccc(-c2ccc(Cl)cc2)o1 | > 100 µM (inactive)
c1ccc(-c2nc(-c3ccncc3)no2)cc1 | 24.7 µM (inactive)
Clc1ccc(-c2nnc(-c3ccco3)o2)cc1 | 15.8 µM
O=C(/C=C/Nc1ccc(F)cc1F)c1cccs1 | 5.04 µM
Clc1ccc(OCc2nc(-c3ccncc3)no2)c(Br)c1 | 31.2 µM (inactive)
CCc1nc2c(OCc3ccc(C(F)(F)F)cc3)cccn2c1N(C)C(=O)c1ccncc1 | 3.57 µM
Cn1c(=O)c2c(-c3ccccc3)n(-c3ccc(N)cc3)cc2n(C)c1=O | 23.5 µM (inactive)
CN(C)C(CNC(=O)CCc1nc2cc(Cl)ccc2n(Cc2ccccc2)c1=O)c1ccccc1 (configuration not stated) | 26.1 µM (inactive)
c1ccc(N2CCN(c3cnc4ccccc4n3)CC2)cc1 | > 100 µM (inactive)
Clc1ccc(C=Cc2ccccn2)c(Cl)c1 | 11.9 µM
O=C(Nc1nc(SCc2ccc(F)cc2)ns1)c1ccco1 | > 100 µM (inactive)
c1ccc(-c2csc(-c3cccnc3)n2)cc1 | > 100 µM (inactive)
CCN(CC)Cc1ccc(NC(=O)c2sc3cc(Cl)ccc3c2Cl)cc1 | 13.8 µM
Cc1ccc(C=Cc2ccccn2)cc1 | > 100 µM (inactive)
Clc1cccc(CSc2ncn(-c3ccccc3)n2)c1 | 37.5 µM (inactive)
O=C(/C=C/c1ccc(Cl)cc1)Nc1ccc(CN2CCOCC2)cc1 | 23.3 µM (inactive)
O=C(Nc1nc(-c2ccccc2)cs1)c1cccs1 | 21.9 µM (inactive)
CCOc1cc(CNCCSc2nnnn2C)cc(Br)c1OCc1ccc(F)cc1 | 2.73 µM
COc1cc(SC)ccc1C(=O)Nc1nccs1 | > 100 µM (inactive)
Fc1ccc(-c2cnc(-c3cccs3)o2)cc1 | 27.5 µM (inactive)
O=C(c1cccs1)c1ccc(-c2cccs2)s1 | 9.1 µM
Fc1ccc(-c2nc3ccc(Cl)cn3c2Cc2ccsc2)cc1 | > 100 µM (inactive)

From PubChem BioAssay AID651563 (Sanford-Burnham Center for Chemical Genomics, 2012)
